Test results: publication PMC11018795, “The regulatory relationship between NAMPT and PD-L1 in cancer and identification of a dual-targeting inhibitor” (EMBO Molecular Medicine, 2024)

Target: NAMPT (Homo sapiens, UniProt P43490)
Assay: In vitro NAMPT activity assay (Abcam kit)
Format: biochemical
Set-up: purchased Abcam ab221819

Chain of NAMPT (P43490 whole entry, species assumed): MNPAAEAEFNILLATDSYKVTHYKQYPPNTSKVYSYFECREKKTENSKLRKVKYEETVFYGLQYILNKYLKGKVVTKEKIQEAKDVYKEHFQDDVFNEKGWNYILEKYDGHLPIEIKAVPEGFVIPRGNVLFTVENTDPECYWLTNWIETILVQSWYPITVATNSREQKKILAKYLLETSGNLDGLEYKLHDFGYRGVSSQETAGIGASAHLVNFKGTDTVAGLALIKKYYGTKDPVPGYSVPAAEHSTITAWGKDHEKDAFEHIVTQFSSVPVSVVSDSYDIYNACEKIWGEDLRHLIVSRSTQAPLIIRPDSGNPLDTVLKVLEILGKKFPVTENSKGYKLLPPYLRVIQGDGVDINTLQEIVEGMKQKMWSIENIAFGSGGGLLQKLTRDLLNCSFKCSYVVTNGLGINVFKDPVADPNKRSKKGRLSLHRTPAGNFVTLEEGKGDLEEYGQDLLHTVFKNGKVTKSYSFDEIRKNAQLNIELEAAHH

Question: What does the source list for `CCN(CC)CCCOc1cccc(-c2cccc3c2CCN3C(=O)c2ncc(CNC(=NC#N)Nc3ccncc3)s2)c1` [LZFPN-90]?
Answer: IC50: 28 nM; mode of NAMPT inhibition (concluded from NMN reversal of NAD+ reduction): NAMPT competitive inhibitor
